From ChEMBL document CHEMBL1201862, “PubChem BioAssay data set” (2004)
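Grown in 96-well plates, cells were treated for 48 hours with each compound at five concentrations. Insufficient inhibition: endpoint recorded as highest concentration tested. GI50: concentration for 50% inhibition of growth.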 The source made the active and inactive calls. No stated cut-off is given here; in the data, active = GI50 up to about 1.1 µM and inactive = higher.

Tests used:
Assay in all cases: NCI-60 cell line screen, 48 h
[1] = test system: CCRF-CEM
[2] = test system: COLO 205
[3] = test system: DU-145
[4] = test system: EKVX
[5] = test system: HCT-15
[6] = test system: HOP-92
[7] = test system: HT-29
[8] = test system: K562
[9] = test system: M14
[10] = test system: MDA-MB-435
[11] = test system: MDA-N
[12] = test system: Malme-3M
[13] = test system: NCI-H23
[14] = test system: RPMI-8226
[15] = test system: SF-295
[16] = test system: SF-539
[17] = test system: SK-MEL-2
[18] = test system: SNB-75
[19] = test system: SR
[20] = test system: UACC-62

Structure (SMILES)	GI50 [1]	GI50 [2]	GI50 [3]	GI50 [4]	GI50 [5] [µM]	GI50 [6]	GI50 [7]	GI50 [8]	GI50 [9]	GI50 [10]	GI50 [11]	GI50 [12]	GI50 [13]	GI50 [14]	GI50 [15]	GI50 [16]	GI50 [17]	GI50 [18]	GI50 [19]	GI50 [20]
COC(=O)c1cc(CC2Cc3cc4c(cc3C2)CCC4)cc2c1CCC2	52.5 µM (inactive)	> 100 µM (inactive)	> 100 µM (inactive)	> 100 µM (inactive)	67.5	88.9 µM (inactive)	49 µM (inactive)	> 100 µM (inactive)	> 100 µM (inactive)	48 µM (inactive)	60.3 µM (inactive)	> 100 µM (inactive)	> 100 µM (inactive)	41 µM (inactive)	> 100 µM (inactive)	> 100 µM (inactive)	40.4 µM (inactive)	> 100 µM (inactive)	29.5 µM (inactive)	
CC(C)(C)c1cc(C(C)(C)C)c2sc(=O)oc2c1O	18.8 µM (inactive)	18.8 µM (inactive)	17.1 µM (inactive)	15 µM (inactive)	12.4	16.8 µM (inactive)	17.4 µM (inactive)	10.1 µM (inactive)	17.5 µM (inactive)	12.4 µM (inactive)	13.5 µM (inactive)	16.5 µM (inactive)		21.3 µM (inactive)	11.4 µM (inactive)	16.1 µM (inactive)	15.5 µM (inactive)	13.7 µM (inactive)	4.98 µM (inactive)	
COc1cc(C2c3cc4c(cc3OC(NN=C(C)C)C2C)OCO4)cc(OC)c1O (configuration not stated)		30.9 µM (inactive)	24.1 µM (inactive)		7.43	62.4 µM (inactive)	36 µM (inactive)		22.6 µM (inactive)	1.24 µM (inactive)	3 µM (inactive)	8.75 µM (inactive)	26.7 µM (inactive)	6.21 µM (inactive)	18.9 µM (inactive)	21.2 µM (inactive)	8.61 µM (inactive)	3.66 µM (inactive)	1.44 µM (inactive)	19.2 µM (inactive)
Oc1c(C2=N[C@H]3CCCC[C@@H]3N2)ccc2ccccc12	> 100 µM (inactive)	> 100 µM (inactive)	> 100 µM (inactive)	> 68.2 µM (inactive)	> 100	> 100 µM (inactive)	> 100 µM (inactive)	> 100 µM (inactive)	> 100 µM (inactive)	> 100 µM (inactive)	> 100 µM (inactive)	> 100 µM (inactive)	> 100 µM (inactive)	> 100 µM (inactive)		> 59.6 µM (inactive)	> 100 µM (inactive)	> 69.2 µM (inactive)	> 100 µM (inactive)	> 100 µM (inactive)
CC(=N\N)/C(C)=N/N=C(C)/C(C)=N/N=C(C)/C(C)=N/N	> 100 µM (inactive)	> 100 µM (inactive)	> 100 µM (inactive)	> 100 µM (inactive)	> 100	> 100 µM (inactive)	> 100 µM (inactive)	> 100 µM (inactive)	> 100 µM (inactive)	> 100 µM (inactive)	> 100 µM (inactive)	> 100 µM (inactive)	> 100 µM (inactive)	> 100 µM (inactive)	> 100 µM (inactive)	> 100 µM (inactive)	> 100 µM (inactive)	> 100 µM (inactive)	> 100 µM (inactive)	
Cn1c2ccc(Cl)cc2c2ccc3c(c21)C(=O)C=CC3=O	3.88 µM (inactive)	> 10 µM (inactive)	> 10 µM (inactive)	> 10 µM (inactive)	> 10	> 10 µM (inactive)	> 10 µM (inactive)	9.14 µM (inactive)	> 10 µM (inactive)	> 10 µM (inactive)	> 10 µM (inactive)	> 10 µM (inactive)	> 10 µM (inactive)	> 10 µM (inactive)	> 10 µM (inactive)	> 10 µM (inactive)	> 10 µM (inactive)	> 10 µM (inactive)	> 10 µM (inactive)	> 10 µM (inactive)
CC(C)=CCC[C@@H](C)C1=C(Nc2ccccc2Cl)C(=O)C(C)=C(O)C1=O	1.01 µM (active)	2.84 µM (inactive)	6.64 µM (inactive)	3.12 µM (inactive)	2.38	6.82 µM (inactive)	3.56 µM (inactive)	17.1 µM (inactive)	6.15 µM (inactive)	4.85 µM (inactive)	4.5 µM (inactive)	4.29 µM (inactive)	2.84 µM (inactive)	1.17 µM (inactive)	2.88 µM (inactive)	3.79 µM (inactive)	3.66 µM (inactive)	1.87 µM (inactive)	1.2 µM (inactive)	3.67 µM (inactive)
O=C1Nc2ccccc2/C1=N/NC(=S)N1CCCCCC1		1.03 µM (active)	2.2 µM (inactive)	0.851 µM (active)	0.45	1.82 µM (inactive)	1.3 µM (inactive)		0.684 µM (active)	1.26 µM (inactive)	2.8 µM (inactive)	0.272 µM (active)	1.21 µM (inactive)	0.824 µM (active)	1 µM (active)	0.168 µM (active)	1.66 µM (inactive)	1.69 µM (inactive)	0.212 µM (active)	0.489 µM (active)
Cc1c(N)nc(C(CC(N)=O)NCC(N)C(N)=O)nc1C(=O)NC(C(=O)NC(C)C(O)C(C)C(=O)NC(C(=O)NCCc1nc(-c2nc(C(=O)NCCCNC(C)c3ccccc3)cs2)cs1)C(C)O)C(OC1OC(CO)C(O)C(O)C1OC1OC(CO)C(O)C(OC(N)=O)C1O)c1c[nH]cn1 (configuration not stated)	4.33 µM (inactive)	11.3 µM (inactive)	7.29 µM (inactive)	47.1 µM (inactive)	5.24	0.19 µM (active)	21.1 µM (inactive)	10.1 µM (inactive)	3.27 µM (inactive)	> 50 µM (inactive)	> 50 µM (inactive)	1.42 µM (inactive)	0.753 µM (active)	3.21 µM (inactive)	0.163 µM (active)	0.0233 µM (active)	16.8 µM (inactive)	0.296 µM (active)	2.3 µM (inactive)	0.706 µM (active)
CC1=NN(c2cc(Cl)c(S(=O)(=O)O)cc2Cl)C2(C1)C(Cl)C(=O)N2c1nc2ccccc2s1 (configuration not stated)	30.3 µM (inactive)	> 100 µM (inactive)	29.3 µM (inactive)	44.9 µM (inactive)	> 100	> 100 µM (inactive)	> 100 µM (inactive)	> 100 µM (inactive)	> 100 µM (inactive)	84.3 µM (inactive)	> 100 µM (inactive)	> 100 µM (inactive)	91 µM (inactive)	79.3 µM (inactive)		> 100 µM (inactive)	> 100 µM (inactive)	> 100 µM (inactive)	89.9 µM (inactive)	71 µM (inactive)
CC1(C)OCN(c2ccc(Cl)cc2)Cn2c1nc1ccccc12	11.4 µM (inactive)	3.34 µM (inactive)	6.85 µM (inactive)	63 µM (inactive)	0.431	> 80.9 µM (inactive)	> 100 µM (inactive)	0.904 µM (active)		0.611 µM (active)	3.05 µM (inactive)	> 100 µM (inactive)	18.1 µM (inactive)	19 µM (inactive)		6.5 µM (inactive)	> 54 µM (inactive)	> 100 µM (inactive)	9.25 µM (inactive)	1.41 µM (inactive)
